Assay results published in PubChem BioAssay (NCI).
Where “and” joins values, the source holds several entries; their conditions need not be identical. Identical values can stand only once.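 Test compounds were applied to cells in 96-well plates for 48 hours at 5 doses. Abbreviation: GI50, concentration required for 50% inhibition of growth. TGI denotes the concentration required for complete inhibition of growth.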

System: MDA-MB-468 breast
Test: NCI tumour cell line growth inhibition, 48 h

Row | Compound | GI50 | TGI
1 | CCNC(=O)O[C@H]1CN[C@H](C#Cc2cc3ncnc(Nc4ccc(OCc5cccc(F)c5)c(Cl)c4)c3s2)C1 | 155 nM | 1920 nM
2 | S=P(N1CC1)(N1CC1)N1CC1 | 23700 nM | 170000 nM
3 | O=C(/C=C/c1ccc(C(F)(F)F)cc1)c1ccc(Nc2nc(NCCO)nc(Nc3ccc(Cl)cc3)n2)cc1 | 5540 nM | 21300 nM
4 | Cn1cc(-c2ccc(-c3ccc(C4=NC5(CC5)C(=O)N4C[C@@H]4CCN(C(=O)C5CC5)C4)cc3)cc2)cn1 | 16900 nM | 40100 nM
5 | Cc1cnc(C(=O)NNc2nc3sc4c(c3c(=O)n2C)C(C)CCC4)cn1 (configuration not stated) | 278 nM | 1070 nM
6 | CCN(CC)c1ccc(C(=O)c2ccc(N(CC)CC)cc2)cc1 | 298 nM | 1660 nM
7 | CCN1CCN(CC(=O)N2c3cccc4cccc(c34)N(C(=O)CN3CCN(CC)CC3)C2c2cn(-c3ccccc3)nc2-c2cccc([N+](=O)[O-])c2)CC1 | 1260 nM | 2760 nM
8 | N#C/C(=C\c1ccc(Br)cc1)n1nnc2ccc(F)cc21 | 271 nM | 867 nM
9 | O=C1C(Cl)=C(NCc2ccco2)C(=O)c2ccccc21 | 3710 nM | 22000 nM
10 | O=C1C[C@@H]2/C(=C(O)\C=C\c3ccccc3)C(=O)C=C[C@@H]2O1 | 1580 nM | 3210 nM
11 | Cc1cc(N2CCOCC2)cc2[nH]c(-c3c(NC[C@@H](O)c4cccc(Cl)c4)cc[nH]c3=O)nc12 | 3650 nM | 14000 nM
12 | C=C1CC2(OC1=O)C(=O)Nc1ccccc12 (configuration not stated) | 854 nM | 2700 nM
13 | COc1ccc(-c2ccc(-c3ccc(C(=N)N)o3)o2)cc1 | 864 nM | 2840 nM
14 | Cc1cnc(C(=O)Nc2nc3ccc(S(=O)(=O)Nc4ccc(C5(C(F)(F)F)CC5)cc4)cc3[nH]2)cn1 | 224 nM | 1980 nM
15 | O=C1C(=O)c2cccnc2-c2ncccc21 | 193 nM | 491 nM
16 | Cc1cn(-c2cc(NC(=O)c3ccc(C)c(Nc4nccc(-c5cccnc5)n4)c3)cc(C(F)(F)F)c2)cn1 | 1800 nM and 1750 nM | 4060 nM and 8390 nM
17 | Cc1ccc(Cl)cc1NC(=O)c1sc2nc3c(cc2c1N)C(=O)CCC3 | 2740 nM | 8760 nM
18 | CCOC(=O)c1c2c(n3ccccc13)C(=O)c1ncccc1C2=O | 2770 nM | 12000 nM
19 | O=C1CCc2c(sc3[nH]c(=S)n(Cc4ccc(Cl)cc4)c(=O)c23)C1 | 299 nM | 1210 nM
20 | COc1cc(-c2nc(SCCC(C)C)nc(Nc3ccc(S(N)(=O)=O)cc3)c2C#N)cc(OC)c1OC | 3070 nM | 9960 nM
21 | CN(C)c1ccc(/C=C/c2cc[n+](C)c(/C=C/c3ccc(N(C)C)cc3)c2)cc1 | 96.9 nM | 537 nM
22 | C=C1C(=O)O[C@H]2[C@H]1CC/C(Cn1cc(-c3ccccc3C(F)(F)F)nn1)=C\CC[C@@]1(C)O[C@@H]21 | 1140 nM | 2800 nM
23 | Cc1ncc(C(=O)Nc2ccc(CN3CCN(C)CC3)c(C(F)(F)F)c2)cc1C#Cc1cnc(N)cc1C#N | 1290 nM | 3780 nM
24 | COc1cc(C2CC(c3ccc(Nc4ccnc5cc(Cl)ccc45)cc3)=NN2c2ccc(Cl)cc2)cc(OC)c1OC (configuration not stated) | 908 nM | 9670 nM
25 | COC(=O)[C@@H](C)C[C@H](Cc1ccccc1)NC(=O)c1csc([C@@H](C[C@H](C(C)C)N(C)C(=O)[C@@H](NC(=O)[C@H]2CCCCN2C)C2CC2)OC(C)=O)n1 |  | > 16500 nM
26 | OC(c1cc(C23CC4CC(CC(C4)C2)C3)nc2c(Cl)cc(Cl)cc12)C1CCCCN1 (configuration not stated) | 1480 nM | 2810 nM
27 | COc1cc(Nc2ncc(F)c(Nc3ccc4c(n3)N(COP(=O)(O)O)C(=O)C(C)(C)O4)n2)cc(OC)c1OC | 1550 nM and 1650 nM | 4740 nM and 5420 nM
28 | O=C(OC[C@H]1O[C@H](OC(=O)c2cc(O)c(O)c(OC(=O)c3cc(O)c(O)c(O)c3)c2)[C@H](OC(=O)c2cc(O)c(O)c(OC(=O)c3cc(O)c(O)c(O)c3)c2)[C@@H](OC(=O)c2cc(O)c(O)c(OC(=O)c3cc(O)c(O)c(O)c3)c2)[C@@H]1OC(=O)c1cc(O)c(O)c(OC(=O)c2cc(O)c(O)c(O)c2)c1)c1cc(O)c(O)c(OC(=O)c2cc(O)c(O)c(O)c2)c1 | 4750 nM | 17800 nM
29 | C[N+]1=C(/C=C\C=C\c2ccccc2)C(C)(C)c2ccccc21 | 636 nM | 4550 nM
